EP0568229A1, “Control of deposition of organic contaminants in pulp and papermaking systems” (BETZ EUROPE, INC., priority 1992, dated 1993)
Like-named read-outs stand apart in the source and are kept apart here.

Experiments:
[1] = for % Control: Table IV; for Percent Control of Pitch: Table VI
Protocol: The slurry contained 0.5% bleached hardwood Kraft fiber, approximately 2000 parts per million of the potassium salt of a fatty acid blend, approximately 200 parts per million calcium from calcium chloride and approximately 300 parts per million sodium carbonate. The slurry was maintained at 50 °C and at a pH of 11.
It was stirred gently by an overhead stirrer and subjected to ultrasonic energy for 10 minutes. The deposit weight was determined by subtracting the starting weight of the pan from the weight of the pan plus the deposit after completion of the test. […] Studies of this type were conducted using hydrophobically modified associative polymers of the type described in this invention.

[2] = Stickie coupon peel strength test modified to examine the effect of dilution; settings: Concen. 50 ppm; for 1st Dilution: 30 minutes in distilled water after the initial immersion; for No Dilution: Table X
From the text: In order to establish the efficacy of the materials used in the present invention as deposition control agents, on plastic surfaces and specifically for adhesive contaminants of the sort found in recycled fiber, a laboratory test was devised utilizing adhesive-backed tapes as stickie coupons. The stickie coupon can be fabricated from any type of adhesive tape that will not disintegrate when placed in water. For the study, tapes made from a styrenebutadiene rubber and vinylic esters were used. Both of these potential organic contaminants are known to cause problems "stickies" in secondary fiber utilization. A second coupon was fabricated from polyester film such as the product marketed as MYLAR by the DuPont Chemical Company. This material was chosen because papermachine forming fabrics are frequently made of polyester which is susceptible to considerable problem caused by stickies.
500 mL of solutions in 600 mL beakers containing various deposit control agents are placed in a water bath heated to 50 °C. The tape and the polyester film coupons are placed in the test solution so the adhesive side of the coupon faces away from the polyester film coupon. After 1 hour of immersion, the adhesive side of the stickie coupon is placed in contact with the polyester coupon and pressed to 1000 pound force.
The average peel strength of the bond formed between the tape coupon and the polyester coupon was measured with an Instron tensile tester. The peel strength of the bond formed between the stickie tape coupon and the polyester coupon was interpreted as a measure of the tendency for an organic contaminant to attach to components of a paper-machine and cause runnability or product quality problems. More specifically, this indicates the tendency of a stickies deposit to form on a plastic surface.
Papermaking consists of various processes which can be affected by sudden changes in pH, temperature, dilution (i.e., concentration), shear force, etc. Severe changes in these parameters can cause system shock which adversely impact paper production. Deposit control agents that can strongly adsorb onto the organic contaminant surface and resist the desorbing effects of dilution are highly desirable. Not only will deposition control be improved, but also the required dosage will be reduced, while negative side effects, such as forming and wet-end interferences, will be reduced or eliminated. The procedure outlined in Table VIII was modified to examine the effect of dilution on deposition control. Dilution was accomplished by immersing the adhesive tape and MYLAR in distilled water for 30 minutes after the initial immersion. This can be repeated as many times as desired.

Nonyl Phenol Ethoxylate [Nonyl Phenol Ethoxylate (Surfonic N-95)]
% Control ([1]; 10 ppm): 9%
Percent Control of Pitch ([1]; 10 ppm): 9%
% Control ([1]; 50 ppm): 81%
Percent Control of Pitch ([1]; 50 ppm): 81%

dodecylphenoxypoly(ethyleneoxy) ethanol [Sample 3]
2nd Dilution [2]: 16
3rd Dilution [2]: 5
4th Dilution [2]: 0
1st Dilution [2]: 34
No Dilution [2]: 100

nonylphenol ethoxylate [Sample 2]
2nd Dilution [2]: 2
3rd Dilution [2]: 0
4th Dilution [2]: 0
1st Dilution [2]: 8
No Dilution [2]: 100

octylphenoxy poly(ethyleneoxy)ethanol [Sample 1]
2nd Dilution [2]: 0
3rd Dilution [2]: 0
4th Dilution [2]: 0
1st Dilution [2]: 5
No Dilution [2]: 100
